From US9593149B2, “Amylin and calcitonin receptor agonist” (Novo Nordisk A/S, priority 2014, dated 2017) come the findings set out here.

For orientation: EC50 means the concentration giving half of the maximal effect. The solubility is the concentration that dissolves in the medium under given conditions. Read a low solubility as a poorly soluble substance. The term IC50 denotes the concentration that inhibits the measured activity by half.

Converted amounts (≈) assume the structure as drawn. Numbered stars: 1 amine (or outer) side, 2 acyl side, 3 side chain; on linkers, the order of the positions; unused ones are H or OH. Peptide text beside a SMILES is read from it. * marks the point of attachment. C18 diacid = O=C(O)CCCCCCCCCCCCCCCCC(=O)*; γGlu = O=C(O)[C@H](CCC(=O)[*:2])N[*:1]

The target of data set [1] is T1, human amylin 3(a) receptor (human calcitonin receptor + RAMP-3), BHK570 cells (Homo sapiens, UniProt O60896+P30988).
T1 construct: host or cells: BHK570
The experiment in a line: Assay (II)b functional CRE-luciferase assay without albumin, human amylin receptor. The data set is classed as cell-based. The conditions noted are these: Tested without HSA; read-out: hAmylin-R funct. EC50. The method, boiled down: (§1)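 BHK570 cells stably expressing human calcitonin receptor with CRE-luciferase reporter, plus RAMP-3 for the amylin 3(a) line. Cells stimulated 3 hours at 37 °C in albumin-free assay medium (0.1% ovalbumin, 10 mM Hepes pH 7.4); cAMP-driven luciferase read by luminescence.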

Data set [2] concerns the target T2, human calcitonin (a) receptor, BHK570 cells (Homo sapiens, UniProt P30988).
T2 construct: host or cells: BHK570
T2 sequence (P30988 25-474): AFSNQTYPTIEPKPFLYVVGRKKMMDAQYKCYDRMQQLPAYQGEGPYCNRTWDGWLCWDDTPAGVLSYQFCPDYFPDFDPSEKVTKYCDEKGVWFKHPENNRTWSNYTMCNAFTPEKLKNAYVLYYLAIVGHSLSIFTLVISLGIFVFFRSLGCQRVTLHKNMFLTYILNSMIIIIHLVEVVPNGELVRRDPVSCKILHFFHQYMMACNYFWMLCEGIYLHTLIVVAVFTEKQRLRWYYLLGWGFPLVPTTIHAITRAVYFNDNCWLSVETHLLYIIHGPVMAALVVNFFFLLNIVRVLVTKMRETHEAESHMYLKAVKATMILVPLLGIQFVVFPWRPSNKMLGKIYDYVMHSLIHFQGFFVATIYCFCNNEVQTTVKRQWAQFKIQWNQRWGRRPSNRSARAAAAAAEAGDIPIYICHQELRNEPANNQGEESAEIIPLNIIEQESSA
As to the kind of experiment: Assay (II)b functional CRE-luciferase assay without albumin, human calcitonin receptor. It counts as cell-based. To be noted: Tested without HSA; read-out: hCTR funct. EC50. In short, it runs like this:
as §1

Data set [3] is described as follows: Assay (IV) determination of solubility. It counts as physicochemical. On the procedure: Assay (IV)—Determination of Solubility
The mimylin peptide was dissolved in water at ˜500 nmol/ml and mixed 1:1 with a series of buffers (100 mM glycylglycine pH 3.0, 100 mM glycylglycine pH 4.0, 100 mM glycylglycine pH 5.0, 100 mM bistrispropane pH 6.0, 100 mM bistrispropane pH 6.5, 100 mM bistrispropane pH 7.0, 100 mM bistrispropane pH 7.5, 100 mM bistrispropane pH 8.0).

The target in data set [4] is T3, human amylin receptor (human calcitonin receptor + human RAMP3), BHK tk'ts 13 cells (Homo sapiens, UniProt O60896+P30988).
T3 construct: expressed in transfected cells; host or cells: BHK tk'ts 13
The experiment in a line: Assay (Va) binding to the human amylin receptor (whole cell). The conditions noted are these: read-out: hAmylin-R binding IC50. The procedure:
The day before the assay the cells were Seeded into Poly-D-Lysin coated 384W Opaque White, BD BioCoat plates (10000 cells/well) and Incubated overnight at 37° C., 5% CO2, 95% humidity.

Data set [5] deals with T4, human calcitonin receptor, BHK tk'ts 13 cells (Homo sapiens, UniProt P30988).
T4 construct: expressed in transfected cells; host or cells: BHK tk'ts 13
T4 sequence (P30988 25-474): T2 sequence (P30988 25-474)
As to the kind of experiment: Assay (VIIa) binding to the human calcitonin receptor (whole cell). To be noted: read-out: hCT-R binding IC50. On the procedure:
Assay (VIIa)—Determination of Binding to the Human Calcitonin Receptor (Whole Cell Binding)
The binding assay was performed using a BHK tk'ts 13 cell line was stably transfected with the human calcitonin receptor, and a CRE-responsive luciferase reporter gene.
The day before the assay the cells were Seeded into Poly-D-Lysin coated 384W Opaque White, BD BioCoat plates (10000 cells/well) and Incubated overnight at 37° C., 5% CO2, 95% humidity. Then, the cells were washed in HBSS (4° C.), and incubated overnight at 4° C. in a binding buffer containing test compounds, 50 pM [125I]-human calcitonin, media w/o phenol red, 500 ml 0.1% ovalbumin (5 ml 10% ovalbumin) 10 mM Hepes (5 ml 1M) 1× Glutamin (5 ml 100×) 1% P/S (5 ml 100%) Complete (1 tablet/50 ml) 0.1% Pluronic F68®. The morning after, the plates were washed three times in HBSS (4° C.), and lyzed in Lysis buffer (0.1 M NaOH), 1% SDS. Scintillation cocktail (MicroScint40®) was added and the plates were shaken at 500 rpm for a short period. The plate was incubated at room temperature in the dark for 1 hour and Read on a TopCounter™ (Packard). The IC50 was calculated using (one site binding competition analysis) GraphPad Prism5 as a measure of receptor affinity. Assay (VIII)—Determination of Binding to the Rat Calcitonin Receptor

For data set [6], the target named is T1, human amylin 3(a) receptor (human calcitonin receptor + RAMP-3), BHK570 cells. The experiment in a line: Assay (II)a functional CRE-luciferase assay with albumin, human amylin receptor. It counts as cell-based. The conditions noted are these: Tested with HSA; read-out: hAmylin-R funct. EC50. In short, it runs like this:
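BHK570 cells stably carry a CRE-luciferase reporter and the calcitonin receptor; co-transfected RAMP-3 gives the amylin 3(a) receptor line. Cells were treated for 3 h at 37 °C in DMEM with 10% FBS and 10 mM Hepes, pH 7.4. cAMP-driven luciferase was read by LucLite luminescence after 30 min at RT.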

T1 sequence (O60896 24-148, one chain of several): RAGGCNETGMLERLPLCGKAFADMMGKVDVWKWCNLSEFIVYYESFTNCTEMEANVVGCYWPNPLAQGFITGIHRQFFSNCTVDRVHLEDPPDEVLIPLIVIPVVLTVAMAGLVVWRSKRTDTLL
T3 sequence (O60896 24-148, one chain of several): as above

In the case of `CC[C@H](C)[C@H](NC(=O)[C@H](C)NC(=O)[C@@H](NC(=O)[C@H](CO)NC(=O)[C@@H](NC(=O)[C@H](CCC(=O)O)NC(=O)[C@H](CO)NC(=O)[C@H](C)NC(=O)[C@H](CCC(=O)O)NC(=O)CCCCCCCCCCCCCCCCC(=O)O)[C@@H](C)CC)[C@@H](C)O)C(=O)N[C@@H](CC(C)C)C(=O)NCC(=O)N[C@@H](CCCNC(=N)N)C(=O)N[C@@H](CC(C)C)C(=O)N[C@@H](CO)C(=O)N[C@@H](C)C(=O)N[C@@H](CCC(=O)O)C(=O)N[C@@H](CC(C)C)C(=O)N[C@@H](Cc1c[nH]cn1)C(=O)N[C@@H](CCC(=O)O)C(=O)N[C@@H](CC(C)C)C(=O)N[C@@H](C)C(=O)N[C@H](C(=O)N[C@@H](CC(C)C)C(=O)N1CCC[C@H]1C(=O)N[C@@H](CCCNC(=N)N)C(=O)N[C@H](C(=O)N[C@@H](CCC(=O)O)C(=O)N[C@H](C(=O)NCC(=O)N1CCC[C@H]1C(=O)N[C@@H](CCC(=O)O)C(=O)N[C@@H](CO)C(=O)N1CCC[C@H]1C(N)=O)[C@@H](C)O)[C@@H](C)O)[C@@H](C)O` [compound 25, [N-terminal(C18 diacid), 5I, 9I]mimylin], the results for the EC50 in data set [1] and in data set [2] were 0.01 nM and 0.007 nM, respectively. Also, the solubility at 18 h is at least 200 µM in data set [3] (bistrispropane buffer, pH 6.5); at least 200 µM in data set [3] (bistrispropane buffer, pH 7.5); at least 200 µM in data set [3] (bistrispropane buffer, pH 6.0); at least 200 µM in data set [3] (bistrispropane buffer, pH 7.0); at least 200 µM in data set [3] (bistrispropane buffer, pH 8.0); at least 200 µM in data set [3] (glycylglycine buffer, pH 3.0). Also, the solubility at 18 h in data set [3] (glycylglycine buffer, pH 4.0) was 218 µM (≈ 822 µg/mL); in data set [3] (glycylglycine buffer, pH 5.0) it was at least 200 µM. Besides, the concentration for half-maximal inhibition (IC50) in data set [4] worked out at 0.4 nM; in data set [5], 0.413 nM.
In the case of `CC(C)C[C@H](NC(=O)[C@H](CCC(=O)O)NC(=O)[C@H](Cc1c[nH]cn1)NC(=O)[C@H](CC(C)C)NC(=O)[C@H](CCC(=O)O)NC(=O)[C@H](C)NC(=O)[C@H](CO)NC(=O)[C@H](CC(C)C)NC(=O)[C@H](CCCNC(=N)N)NC(=O)CNC(=O)[C@H](CC(C)C)NC(=O)[C@@H](NC(=O)[C@H](C)NC(=O)[C@@H](NC(=O)[C@@H](NC(=O)[C@H](CC(C)C)NC(=O)[C@H](CCC(=O)O)NC(=O)[C@H](CO)NC(=O)[C@H](C)NC(=O)CC[C@H](NC(=O)CCCCCCCCCCCCCCCCC(=O)O)C(=O)O)[C@@H](C)O)[C@@H](C)O)C(C)C)C(=O)N[C@@H](C)C(=O)N[C@H](C(=O)N[C@@H](CC(C)C)C(=O)N1CCC[C@H]1C(=O)N[C@@H](CCCNC(=N)N)C(=O)N[C@H](C(=O)N[C@@H](CCC(=O)O)C(=O)N[C@H](C(=O)NCC(=O)N[C@@H](CO)C(=O)NCC(=O)N[C@H](C(=O)N1CCC[C@H]1C(N)=O)[C@@H](C)O)[C@@H](C)O)[C@@H](C)O)[C@@H](C)O` [compound 94, [N-terminal(C18 diacid-gGlu), des1, 6T, 9V, 30S, 31G, 32T]mimylin] ({C18 diacid-γGlu}-ASELTTAVLGRLSAELHELATLPRTETGSGTP-NH2), the EC50 in data set [6] came out at 0.03 nM; in data set [1], 0.042 nM; in data set [2] it was 0.03 nM. Also, the solubility at 18 h in data set [3] (bistrispropane buffer, pH 6.5) was at least 200 µM; in data set [3] (bistrispropane buffer, pH 7.5), at least 200 µM; in data set [3] (bistrispropane buffer, pH 6.0), at least 200 µM; in data set [3] (bistrispropane buffer, pH 7.0), at least 200 µM; in data set [3] (bistrispropane buffer, pH 8.0), at least 200 µM; in data set [3] (glycylglycine buffer, pH 3.0) it was at least 200 µM. The solubility at 18 h in data set [3] (glycylglycine buffer, pH 4.0) was at least 200 µM; in data set [3] (glycylglycine buffer, pH 5.0), at least 200 µM. Further, the results for the IC50 in data set [4] and in data set [5] were 0.652 nM and 0.651 nM, respectively.
